According to the CheMixHub ionic liquid set:

Test: xn = mol fraction of the nth substance listed

CCCCCCCCn1cc[n+](C)c1.N#C[S-] + CN(C)C=O
viscosity [mPa·s], 101 kPa
Conditions	293.15 K	303.15 K	313.15 K	323.15 K	333.15 K	343.15 K	353.15 K	363.15 K
x1 = 0.004576	0.987	0.872	0.784	0.707	0.65	0.595	0.544	0.504
x1 = 0.007767	1.007	0.891	0.799	0.722	0.658	0.604	0.558	0.515
x1 = 0.01461	1.065	0.948	0.868	0.779	0.705	0.642	0.591	0.543
x1 = 0.02142	1.136	0.994	0.912	0.814	0.728	0.673	0.617	0.563
x1 = 0.02908	1.219	1.057	0.956	0.848	0.764	0.713	0.648	0.598
x1 = 0.03577	1.297	1.134	1.013	0.897	0.808	0.738	0.672	0.618

CCCCCCCCn1cc[n+](C)c1.[Cl-] + CO
101 kPa
Conditions	viscosity [mPa·s]
298.15 K, x1 = 0.0197	0.729
298.15 K, x2 = 0.3525	530
298.15 K, x2 = 0.4395	237
298.15 K, x2 = 0.5589	64.1
298.15 K, x2 = 0.8713	2.39
298.15 K, x2 = 0.8813	2.205
313.15 K, x2 = 0.5589	34.97
313.15 K, x2 = 0.8231	3.58
328.15 K, x2 = 0.4395	55.2
328.15 K, x2 = 0.8231	2.496

CCCC[n+]1ccc(C)cc1.F[B-](F)(F)F + CO
101 kPa
Conditions	viscosity [mPa·s]
298.15 K, x2 = 0	196
298.15 K, x2 = 0.4287	19.3
298.15 K, x2 = 0.5246	11.58
298.15 K, x2 = 0.9671	0.729
313.15 K, x2 = 0.4287	11.94
313.15 K, x2 = 0.718	2.98
313.15 K, x2 = 0.8803	1.13
323.15 K, x1 = 0.01507	0.447
323.15 K, x2 = 0.8313	1.31
323.15 K, x2 = 0.8803	0.972

CC[n+]1ccn(C)c1.N#C[S-] + CO
100 kPa
Conditions	electrical conductivity [S/m]	viscosity [mPa·s]
298.15 K, x1 = 0.5972	2.07	12.8
303.15 K, x1 = 0.3859	2.58	7
303.15 K, x1 = 1	–	20
308.15 K, x1 = 0.0988	2.57	1.9
308.15 K, x1 = 0.5006	2.65	7.9
308.15 K, x1 = 1	2.27	18
323.15 K, x1 = 0.1966	–	2.2
323.15 K, x1 = 0.3005	3.7	3.2
323.15 K, x1 = 0.804	3.13	9.1
323.15 K, x1 = 0.8997	3.08	10.4
323.15 K, x1 = 1	3.05	12

C[N+](C)(C)CCC[N+]1(C)CCCCC1.N#C[N-]C#N.N#C[N-]C#N + CO
100 kPa
Conditions	viscosity [mPa·s]
293.15 K, x1 = 0.5002	271
293.15 K, x1 = 0.6001	585
303.15 K, x1 = 0.2001	11.3
303.15 K, x1 = 0.3002	28.5
303.15 K, x1 = 0.5002	160
323.15 K, x1 = 0.0999	2.73
323.15 K, x1 = 0.3002	15.7
333.15 K, x1 = 0.3999	24.9
